EPA's ToxValDB 9.5

Tests used:
Rattus norvegicus [1] = details: short-term, duration: 28 days, oral, gavage, M, Sprague-Dawley
Rattus norvegicus [2] = details: subchronic; duration: 90 days; oral; diet; M/F; CD; Deaths + Body Weight Changes: decrease + Food Consumption: decrease + Hematology: RBC decrease, HGB decrease, HCT decrease, WBC decrease, …
Rattus norvegicus [3] = details: oral
[4] = developmental, duration: 7 days, Sprague-Dawley, Body Weight: 30% reduction in body weight of dams + Developmental: 13% reduction in body weight of male pups
[5] = developmental, duration: 20 days, F, Sprague-Dawley, Developmental: 5-fold increased neonatal mortality on PNDs 1-3
[6] = developmental, duration: 21 days, F, Sprague-Dawley, Developmental: ~5-fold increased postnatal mortality and severe lung histopathology in pups
[7] = short-term, duration: 28 days, M, Sprague-Dawley, Body Weight: 12% decrease in terminal body weight
[8] = short-term, duration: 28 days, M, Sprague-Dawley, Neurological: Degeneration of gonadotropic cells of the pituitary gland at ?1.0 mg/kg/day / dense chromatin, condensed ribosomes, loss of …
[9] = short-term, duration: 28 days, M, Wistar, Neurological: Tonic convulsions in response to stimuli

O=S(=O)(O)C(F)(F)C(F)(F)C(F)(F)C(F)(F)C(F)(F)C(F)(F)C(F)(F)C(F)(F)F [Perfluorooctanesulfonic acid]
0.5 mg/kg-day: LOAEL (Rattus norvegicus [3]; short-term, duration: 25 days, M, Sprague-Dawley, Endocrine: Decreases in serum corticosterone (~58%) and ACTH levels (~11%), decrease in corticotrophin releasing hormone levels in …) | NOAEL (Rattus norvegicus [3]; [8])
0.1 mg/kg-day: NOAEL (Rattus norvegicus [3]; [6])
0.625 mg/kg-day: LOEL (Rattus norvegicus [1]; Clinical chemistry_Total triiodothyronine)
10 mg/kg-day: NOAEL (Rattus norvegicus [3]; short-term, duration: 21 days, M, Sprague-Dawley)
8.5 mg/kg-day: LOAEL (Rattus norvegicus [3]; [9])
2 mg/kg-day: LOAEL (Rattus norvegicus [3]; [5]) | LOAEL (Rattus norvegicus [3]; [6]) | NOAEL (Rattus norvegicus [3]; [9])
< 2.88 mg/kg-day: NOAEL (Rattus norvegicus [2])
2.5 mg/kg-day: LOEL (Rattus norvegicus [1]; Gene expression_Acyl-CoA oxidase) | LOEL (Rattus norvegicus [1]; Hematology_Reticulocytes) | LOEL (Rattus norvegicus [1]; Nonneoplastic effects_Liver - Hepatocyte, vacuolization cytoplasmic)
3 mg/kg-day: LOAEL (Rattus norvegicus [3]; short-term, duration: 28 days, M, Sprague-Dawley, Endocrine: Decreased serum prolactin (~78%) and estradiol concentrations (~18%))
5 mg/kg-day: NOEL (Rattus norvegicus [1]; Clinical chemistry_Total bilirubin) | NOEL (Rattus norvegicus [1]; Clinical chemistry_Total protein) | LOEL (Rattus norvegicus [1]; Clinical chemistry_Triglycerides) | NOEL (Rattus norvegicus [1]; Hematology_Erythrocytes) | NOEL (Rattus norvegicus [1]; Hematology_Hematocrit) | NOEL (Rattus norvegicus [1]; Hematology_Hemoglobin) | LOEL (Rattus norvegicus [1]; Hematology_Leukocytes) | LOEL (Rattus norvegicus [1]; Hematology_S. neutrophils) | NOEL (Rattus norvegicus [1]; Nonneoplastic effects_Kidney - Papilla, necrosis) | NOEL (Rattus norvegicus [1]; Nonneoplastic effects_Liver - Hepatocyte, cytoplasmic alteration) | NOEL (Rattus norvegicus [1]; Nonneoplastic effects_Liver - Necrosis) | NOEL (Rattus norvegicus [1]; Nonneoplastic effects_Nose - Olfactory epithelium, degeneration) | NOEL (Rattus norvegicus [1]; Nonneoplastic effects_Nose - Olfactory epithelium, hyperplasia) | NOEL (Rattus norvegicus [1]; Nonneoplastic effects_Nose - Olfactory epithelium, inflammation, suppurative) | NOEL (Rattus norvegicus [1]; Nonneoplastic effects_Nose - Olfactory epithelium, necrosis) | NOEL (Rattus norvegicus [1]; Nonneoplastic effects_Stomach, forestomach - Epithelium, hyperplasia) | NOEL (Rattus norvegicus [1]; Nonneoplastic effects_Thymus - Atrophy) | LOEL (Rattus norvegicus [1]; Organ weights_Heart - Absolute) | NOEL (Rattus norvegicus [1]; Organ weights_Heart - Relative) | NOEL (Rattus norvegicus [1]; Organ weights_Lung - Absolute) | NOEL (Rattus norvegicus [1]; Organ weights_Lung - Relative) | NOEL (Rattus norvegicus [1]; Organ weights_R. adrenal gland - Relative) | NOEL (Rattus norvegicus [1]; Organ weights_R. kidney - Absolute) | NOEL (Rattus norvegicus [1]; Organ weights_R. kidney - Relative) | NOEL (Rattus norvegicus [1]; Organ weights_Spleen - Relative) | LOEL (Rattus norvegicus [1]; Organ weights_Thymus - Absolute) | LOEL (Rattus norvegicus [1]; Organ weights_Thymus - Relative) | NOEL (Rattus norvegicus [1]; Reproductive toxicity_Altered sperm parameters) | NOEL (Rattus norvegicus [1]; Survival rates) | NOAEL (Rattus norvegicus [3]; [4]) | LOAEL (Rattus norvegicus [3]; short-term, duration: 21 days, M, Sprague-Dawley, Reproductive: Delayed maturation of testicular Leydig cells, decreased seminal vesicle weight, decreased epididymal sperm count, decreased …) | LOAEL (Rattus norvegicus [3]; short-term, duration: 28 days, M, Sprague-Dawley, Hepatic: Hepatocellular hypertrophy and focal necrosis at ?5 mg/kg/day / fatty degeneration at 20 mg/kg/day + Neurological: Cachexia and …)
18.8 mg/kg-day: LOAEL (Rattus norvegicus [3]; developmental, duration: 5 days, M/F, Sprague-Dawley, Body Weight: Reduced body weight in dams / approximately 98% on GD 8 and 33% on GD 20 + Developmental: Decreased birth weight in females …)
7.43 mg/L: NOAEL (Rattus norvegicus [3]; developmental, duration: 84 days, gavage, M/F, Sprague-Dawley, developmental)
6 mg/kg-day: NOAEL (Rattus norvegicus [3]; short-term, duration: 28 days, M, Sprague-Dawley)
1.33 mg/kg-day: NOAEL (Rattus norvegicus [3]; [7])
6.34 mg/kg-day: NOAEL (Rattus norvegicus [3]; short-term, duration: 28 days, M, Sprague-Dawley, Hepatic: Increased relative liver weight at ?0.14 mg/kg/day)
20 mg/kg-day: LOAEL (Rattus norvegicus [3]; [4]) | LOAEL (Rattus norvegicus [3]; short-term, duration: 28 days, M, Sprague-Dawley, Death: 100% by day 26)
0.8 mg/kg-day: LOAEL (Rattus norvegicus [3]; developmental, duration: 1 days, M/F, Wistar, Developmental: Decreased spatial learning ability in prenatally or postnatally exposed offspring at ?0.8 mg/kg/day and in offspring exposure…)
1 mg/kg-day: LOAEL (Rattus norvegicus [3]; [8])
0.312 mg/kg-day: LOEL (Rattus norvegicus [1]; Clinical chemistry_Total thyroxine) | LOEL (Rattus norvegicus [1]; Gene expression_Cyp2b1) | LOEL (Rattus norvegicus [1]; Gene expression_Cyp2b2) | LOEL (Rattus norvegicus [1]; Gene expression_Cyp4a1) | LOEL (Rattus norvegicus [1]; Organ weights_Liver - Absolute) | LOEL (Rattus norvegicus [1]; Organ weights_Liver - Relative)
3.21 mg/kg-day: LOAEL (Rattus norvegicus [3]; [7])
0.6 mg/kg-day: NOAEL (Rattus norvegicus [3]; [5])
1.25 mg/kg-day: LOEL (Rattus norvegicus [1]; Gene expression_Acox1) | LOEL (Rattus norvegicus [1]; Nonneoplastic effects_Bone marrow - Hypocellularity) | LOEL (Rattus norvegicus [1]; Nonneoplastic effects_Liver - Hepatocyte, hypertrophy) | LOEL (Rattus norvegicus [1]; Nonneoplastic effects_Spleen - Extramedullary hematopoiesis, decreased) | LOEL (Rattus norvegicus [1]; Organ weights_R. adrenal gland - Absolute) | LOEL (Rattus norvegicus [1]; Organ weights_Spleen - Absolute)
